Reference: patent publication US20170119742A1, “MEDICAMENT FOR PREVENTING AND/OR TREATING STRESS DISEASES” (ONO PHARMACEUTICAL CO., LTD., priority 2014, published 2017)

Assays:
[1] = test system: brain TSPO; experiment: Ex vivo brain TSPO occupancy in monkeys, [3H] PBR28; settings: rhesus monkey, once on day 4, 2 h after final dose
Description: (§1) The vehicle (0.5 w/v % methylcellulose 400 cP solution) or the compound of the present invention (0.4 or 1 mg/kg) was orally administered twice daily for 3 days, once on day 4 to male rhesus monkeys (Shin Nippon Biomedical Laboratories, Ltd., at the time of use: 4 to 6 kg). After 2 hours of the final administration, in the same manner as Biological example 1, brain TSPO occupancy of the compound of the present invention relative to the specific binding of the vehicle control group was measured by measuring the specific binding amount of [3H] PBR28 on brain (anterior cingulate cortex, caudate nucleus, amygdala, hippocampus and occipital lobe) homogenates (n=3 in vehicle control group, n=5 in each the compound of the present invention treated group). As a result, the average TSPO occupancy of brain 5 sites was 37.9 and 56.6% in 0.4 and 1 mg/kg group of the compound of the present invention. The average plasma concentration of the compound of the present invention was 23.9 and 154 ng/mL in 0.4 and 1 mg/kg group.

[2] = target: T1, brain TSPO (Rattus norvegicus, UniProt P16257); experiment: Comparison of radiotracer in rat ex vivo brain occupancy (Biological example 5); settings: po, rat cerebral cortex, 3 h; for receptor occupancy at 0.03 mg/kg: 0.03 mg/kg oral; for receptor occupancy at 0.1 mg/kg: 0.1 mg/kg oral; for receptor occupancy at 0.3 mg/kg: 0.3 mg/kg oral; for receptor occupancy at 1 mg/kg: 1 mg/kg oral; for receptor occupancy at 3 mg/kg: 3 mg/kg oral
T1 construct: measured by using brain (cerebral cortex and hippocampus) homogenates of the vehicle treated group and the compound of the present invention treated group; from tissue; host or cells: Wistar rat brain (cerebral cortex, hippocampus) homogenate
Description: Next, brain TSPO occupancy of the compound of the present invention was measured by using brain (cerebral cortex and hippocampus) homogenates of the vehicle treated group and the compound of the present invention treated group, using [^3H] PK11195 as a radiotracer. PK11195 was dissolved in dimethyl sulfoxide (DMSO) to prepare a 4 mmol/L solution. After preparing an ethanol solution of 100 nmol/L [^3H] PK11195 (PerkinElmer, Inc.), the solution was diluted 50-fold with 50 mmol/L HEPES buffer (Sigma-Aldrich Co.). In the case of determining the total binding amount of the radiotracer, 50 mmol/L HEPES (99 μL) and DMSO (1 μL) were added to Nunc MiniSorp (trade name, 12×75 mm, Thermo Fisher Scientific Inc.). In the case of determining the nonspecific binding amount of the radiotracer, 4 mmol/L PK11195 (1 μL) was substituted for DMSO (1 μL). The brain homogenate (50 μL) derived from cerebral cortex or the hippocampus was added to the tube. Then [^3H] PK11195 (50 μL) (cerebral cortex: final concentration 0.4532 nmol/L, hippocampus: final concentration 0.4520 nmol/L) was added and stirred, and the mixture was incubated for 90 minutes at 4° C. After completion of the reaction, ice-cold 50 mmol/L HEPES (2 mL) was added to the tube, and then the mixture was suction filtered on a glass fiber filter (GF/B, Brandel Inc.) which pretreated with 0.3 w/v % polyethyleneimine (Sigma-Aldrich Co.), to collect the brain homogenate. After drying the glass fiber filter, the absorbing part of the brain homogenate was transferred to a liquid scintillation vial. ACS-II scintillation cocktail (7 mL) was added to the liquid scintillation vial and stirred, and the radioactivity was measured by liquid scintillation counter (TRI-CARB2900TR, PerkinElmer Life and Analytical Sciences Inc.). Specific binding amount (dpm) of [3H] PK11195 in each brain homogenate was set to a value obtained by subtracting the nonspecific binding amount (dpm) from the total binding amount (dpm). TSPO occupancy (%) in cerebral cortex and hippocampus, of the compound of the present invention treated group, were calculated according to the following equation.
TSPO Occupancy (%)=(1−X/Y)×100
X: Specific binding amount (dpm) in each brain homogenate Y: Average value (dpm) of specific binding amount in control group
The vehicle (0.5 w/v % methylcellulose 400 cP solution) or the compound of the present invention (0.03, 0.1, 0.3, 1 or 3 mg/kg) was orally administered to male Sic: Wistar rats (Japan SLC, Inc., at the time of use: 11 weeks old). After 3 hours of the administration, in the same manner as Biological example 1, brain TSPO occupancy of the compound of the present invention relative to the specific binding of the vehicle control group was measured by measuring the specific binding amount of [^3H] PK11195 or [^3H] PBR28 (Sekisui Medical Co., Ltd.) of brain (cerebral cortex) homogenates (n=8 in each group). As a result, the average TSPO occupancy of 0.03, 0.1, 0.3, 1 and 3 mg/kg group of the compound of the present invention was […] in the cerebral cortex when [^3H] PK11195 was used as a radiotracer. On the other hand, the average TSPO occupancy was 6.5, 11.5, 40.4, 77.7 and 90.2% in the cerebral cortex when [^3H] PBR28 was used as a radiotracer. […] PBR28 or [^3H] PK11195 radiotracer.

[3] = test system: female diarrhea-type IBS patients; experiment: HAM-A (Hamilton Anxiety Scale) in the clinical trial of Biological example 10; format: in vivo, human; settings: 60 mg treatment
Description: In the clinical trial of Biological example 10, the therapeutic effect of the compound of the present invention 60 mg treatment on depression and anxiety-related diseases were evaluated using PSS (Perceived Stress Scale) (refer to Journal of Health and Social Behavior, 24, 386-396, 1983), HAM-A (Hamilton Anxiety Scale) (refer to The British journal of medical psychology, 32, 50-55, 1959) and HAM-D (Hamilton Depression scale) (refer to Journal of Neurology, Neurosurgery and Psychiatry, 23, 56-62, 1960) as rating scales.

[4] = Plasma concentration in monkeys (ex vivo occupancy study); settings: male, rhesus monkey, once on day 4
Description: as §1

[5] = 0.4 mg/kg oral twice daily 3 days
[6] = 1 mg/kg oral twice daily 3 days

receptor occupancy at 0.03 mg/kg ([2]; [3H] PBR28): 6.5% | receptor occupancy at 0.03 mg/kg ([2]; [3H] PK11195): -1.3% | receptor occupancy at 0.1 mg/kg ([2]; [3H] PBR28): 11.5% | receptor occupancy at 0.1 mg/kg ([2]; [3H] PK11195): 14.9% | receptor occupancy at 0.3 mg/kg ([2]; [3H] PBR28): 40.4% | receptor occupancy at 0.3 mg/kg ([2]; [3H] PK11195): 48.1% | receptor occupancy at 1 mg/kg ([2]; [3H] PBR28): 77.7% | receptor occupancy at 1 mg/kg ([2]; [3H] PK11195): 80.9% | receptor occupancy at 3 mg/kg ([2]; [3H] PBR28): 90.2% | receptor occupancy at 3 mg/kg ([2]; [3H] PK11195): 91.3% | concentration at 2 h [4, 5]: 23.9 ng/mL | concentration at 2 h [4, 6]: 154 ng/mL
Structure (SMILES): COc1cc(Cl)ccc1[C@H]1c2[nH]c3cccc(F)c3c2C2(CC2)CN1C(C)=O [the compound of the present invention, (1S)-2-acetyl-1-(4-chloro-2-methoxyphenyl)-5-fluoro-1,2,3,9-tetrahydrospiro[β-carboline-4,1′-cyclopropane]]
average TSPO occupancy of brain 5 sites [1, 5]: 37.9% | average TSPO occupancy of brain 5 sites [1, 6]: 56.6% | HAM-A score, 4th week ([3]; Patient A, baseline 18): 4 | HAM-A score, Amount of change from baseline ([3]; Patient A, baseline 18, 4th week): −14 | HAM-A score, 4th week ([3]; Patient B, baseline 23): 1 | HAM-A score, Amount of change from baseline ([3]; Patient B, baseline 23, 4th week): −22 | HAM-A score, 4th week ([3]; Patient D, baseline 22): 4 | HAM-A score, Amount of change from baseline ([3]; Patient D, baseline 22, 4th week): −18 | HAM-A score, 4th week ([3]; Patient E, baseline 18): 5 | HAM-A score, Amount of change from baseline ([3]; Patient E, baseline 18, 4th week): −13
